Experimental data as given in patent US9556135B2, “Amino-dihydrothiazine and amino-dioxido dihydrothiazine compounds as beta-secretase antagonists and methods of use” (Amgen Inc., priority 2012, dated 2017).
Where two headings read alike, the source gives them in different places. One block for each molecule: values may come before it.

Assays:
[1] = molecular target: Beta Secretase enzyme (BACE1) (Homo sapiens (Human), UniProt P56817); assay: In vitro enzymatic BACE FRET assay; format: biochemical
Method: In Vitro Enzymatic BACE FRET (Fluorescence Resonance Energy Transfer) Assay (Enzyme Assay Data in the Example Tables I and II)
The assay buffer used in this screen is 0.05 M acetate, pH 4.2, 10% DMSO final, 100 uM genapol (which is a nonionic detergent, below its Critical Micelle Concentration). […] This assay is effectively started by the addition of FRET substrate (50 nM) and the combination is incubated for one hour. The FRET assay is terminated with by addition of Tris buffer, which raises the pH to neutrality, and the fluorescence is determined. The FRET substrate is a peptide with commercially available fluorophore and quencher, on opposite sides of the BACE cleavage site. Proteolytic cleavage of the FRET substrate releases quenching of fluorescence (excitation […] and […]).

[2] = system: Aβ40 in conditioned medium of cells stably expressing Amyloid Precursor Protein (APP); assay: In vitro BACE cell-based assay (HEK cell assay), Aβ40 sandwich ELISA
Method: In Vitro BACE Cell-Based Assay
The cell-based assay measures inhibition or reduction of Aβ40 in conditioned medium of test compound treated cells expressing amyloid precursor protein.
Cells stably expressing Amyloid Precursor Protein (APP) were plated at a density of 40K cells/well in 96 well plates (Costar). The cells were cultivated for 24 hours at 37° C. and 5% CO2 in DMEM supplemented with 10% FBS. The test compounds were then added to cells in 10-point dose response concentrations with the starting concentration being either 100 μM or 10 μM. The compounds were diluted from stock solutions in DMSO and the final DMSO concentration of the test compounds on cells was 0.1%. After 24 h of incubation with the test compounds the supernatant conditioned media was collected and the Aβ 40 levels were determined using a sandwich ELISA. The IC50 of the compound was calculated from the percent of control or percent inhibition of Aβ 40 as a function of the concentration of the test compound.
The sandwich ELISA to detect Aβ 40 was performed in 96 well microtiter plates, which were pre-treated with goat anti-rabbit IgG (Pierce). The capture and detecting antibody pair that were used to detect Aβ 40 from cell supernatants were affinity purified pAb40 (Biosource) and biotinylated 6E10 (Signet Labs Inc.), respectively. The optimal concentration for the pAb40 antibody was 3 μg/ml in Superblock/TBS (Pierce) that was supplemented with 0.05% Tween 20 (Sigma).
Cellular supernatants were incubated with the capture antibody for 3 h at 4° C., followed by 3 wash steps in TBS-tween (0.05%). The detecting antibody incubation was for 2 h at 4° C., again followed by the wash steps as described previously. The final readout of the ELISA is Time-Resolved Fluorescence (counts per minute) using Delfia reagents Streptavidin-Europium and Enhancement solutions (Perkin Elmer) and the Victor 2 multilabel counter (Perkin Elmer).

Cathepsin D (Cat D) = Cathepsin D (Cat D) (Homo sapiens (Human), UniProt P07339); assay: In vitro enzymatic Cathepsin D (Cat D) FRET assay; format: biochemical; details: read-out: CatD IC50
Method: In Vitro Enzymatic Cathepsin D (Cat D) FRET (Fluorescence Resonance Energy Transfer) Assay Recombinant Cat D was expressed in CHO cells. […] The Cat D enzyme (9 nM) is pre-incubated for one hour with inhibitors, typically in about 1 uL of DMSO according to a serial dilution, is added thereto. […] The FRET assay is terminated with by addition of Tris buffer, which raises the pH to neutrality, and the fluorescence is determined. The FRET substrate is a peptide with commercially available fluorophore and quencher, on opposite sides of the BACE cleavage site. The Cat D substrate peptide sequence is based on sequence #1 of Table 1 from Gulnik et al. […] Where available, the in-vitro Cat D FRET assay data for each of the Examples, conducted by the first procedure, is provided.

Abeta 40 = assay: In vivo inhibition of beta-secretase: Abeta 40 reduction in CSF and brain of the rat; details: 10 mpk (unless otherwise noted), after 4 hrs
[3] = average IC50, enzyme assay (Table II)
[4] = average IC50, cell assay (Table II)
[5] = Homo sapiens, HEK293, average IC50, HEK cell assay

Chain of Beta Secretase enzyme (BACE1) (P56817 46-501): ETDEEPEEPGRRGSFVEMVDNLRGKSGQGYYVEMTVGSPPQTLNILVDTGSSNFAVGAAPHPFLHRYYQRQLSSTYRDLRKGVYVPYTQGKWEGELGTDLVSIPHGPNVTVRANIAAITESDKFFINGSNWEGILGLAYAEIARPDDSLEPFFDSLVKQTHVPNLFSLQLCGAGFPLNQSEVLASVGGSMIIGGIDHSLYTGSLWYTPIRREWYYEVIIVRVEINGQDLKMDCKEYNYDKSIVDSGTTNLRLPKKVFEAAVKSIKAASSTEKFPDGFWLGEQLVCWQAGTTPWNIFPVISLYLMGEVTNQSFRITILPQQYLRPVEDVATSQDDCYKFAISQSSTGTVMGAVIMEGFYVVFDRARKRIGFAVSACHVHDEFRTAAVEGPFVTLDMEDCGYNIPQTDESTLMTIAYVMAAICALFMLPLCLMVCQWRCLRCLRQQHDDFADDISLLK
Chain of Cathepsin D (Cat D) (P07339 65-412, species assumed): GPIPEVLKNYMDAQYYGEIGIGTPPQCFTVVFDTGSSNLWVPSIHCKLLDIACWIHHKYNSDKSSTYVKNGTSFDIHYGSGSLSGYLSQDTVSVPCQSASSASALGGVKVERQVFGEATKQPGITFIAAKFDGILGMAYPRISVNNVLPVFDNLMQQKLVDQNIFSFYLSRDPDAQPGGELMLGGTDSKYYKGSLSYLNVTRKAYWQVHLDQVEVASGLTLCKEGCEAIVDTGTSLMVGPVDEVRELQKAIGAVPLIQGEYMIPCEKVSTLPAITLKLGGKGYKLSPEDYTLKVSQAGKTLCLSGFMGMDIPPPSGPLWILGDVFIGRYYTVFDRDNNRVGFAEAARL

Molecule: COc1cnc(C(=O)Nc2ccc(F)c([C@@]3(C(F)(F)F)CS(=O)(=O)C(C)(C)C(N)=N3)c2)cn1 [Example 34, N-(3-((3R)-5-amino-6,6-dimethyl-1,1-dioxido-3-(trifluoromethyl)-3,6-dihydro-2H-1,4-thiazin-3-yl)-4-fluorophenyl)-5-methoxy-2-pyrazinecarboxamide]
IC50 [1]: 883 nM | IC50 ([2]; Homo sapiens, HEK293, Aβ40 in conditioned medium after 24 h incubation): > 10000 nM | IC50 (Cathepsin D (Cat D)): > 400000 nM

Molecule: COc1cnc(C(=O)Nc2cc([C@@]3(C)CS(=O)(=O)C(C)(C)C(N)=N3)c(F)cn2)cn1 [Example 142, (S)—N-(4-(5-amino-3,6,6-trimethyl-1,1-dioxido-3,6-dihydro-2H-1,4-thiazin-3-yl)-5-fluoropyridin-2-yl)-5-methoxypyrazine-2-carboxamide]
IC50 ([1]; average IC50): 10000 nM | IC50 ([2]; Homo sapiens, HEK293, average IC50): 4360 nM | IC50 (Cathepsin D (Cat D)): > 400000 nM

Molecule: COc1cnc(C(=O)Nc2cc([C@]3(C)CS(=O)(=O)C(C)(C)C(N)=N3)c(F)cn2)cn1 [Example 143, (R)—N-(4-(5-amino-3,6,6-trimethyl-1,1-dioxido-3,6-dihydro-2H-1,4-thiazin-3-yl)-5-fluoropyridin-2-yl)-5-methoxypyrazine-2-carboxamide]
IC50 [1, 3]: 115 nM | IC50 ([2]; Homo sapiens, HEK293, average IC50, cell assay (Table II)): 462 nM | IC50 (Cathepsin D (Cat D); Table II): 221000 nM

Molecule: Cc1ccc(Oc2ccc(F)c([C@]3(C)CS(=O)(=O)C(C)(C)C(N)=N3)c2)nc1 [Example 265, (5R)-5-(2-fluoro-5-((5-methyl-2-pyridinyl)oxy)phenyl)-2,2,5-3-amine 1,1-dioxide trimethyl-5,6-dihydro-2H-1,4-thiazin-3-amine 1,1-dioxide]
IC50 ([2]; average IC50): 804 nM

Molecule: Cc1cc(C(F)F)cnc1C(=O)Nc1ccc(F)c([C@]2(C)CS(=O)(=O)[C@]3(C[C@@H](F)C3)C(N)=N2)c1 [Example 338, N-(3-((2S,4s,7R)-9-amino-2-fluoro-7-methyl-5,5-dioxido-5-thia-8-azaspiro[3.5]non-8-en-7-yl)-4-fluorophenyl)-5-(diffuoromethyl)-3-methyl-2-pyridinecarboxamide]
IC50 [1, 3]: 2.94 nM | IC50 [2, 4]: 10.8 nM | IC50 (Cathepsin D (Cat D); Table II): 59000 nM

Molecule: CC1(C)C(N)=N[C@](C)(c2cc(NC(=O)c3cc4ccccc4cn3)ccc2F)CS1(=O)=O [Example 343]
IC50 [2, 4]: 10.7 nM

Molecule: CC1(C)C(N)=N[C@](C)(c2cc(Nc3ncnc4cc(C#N)cnc34)cnc2F)CS1(=O)=O [Example 384]
IC50 ([2]; average IC50): 23.9 nM

Molecule: N-(3-((4aR,7aR)-3-amino-2,2-dimethyl-1,1-dioxido-7,7a-dihydro-2H-furo[3,4-b][1,4]thiazin-4a(5H)-yl)-4-fluorophenyl)-5-(difluoromethoxy)-3-methyl-2-pyridinecarboxamide,N-(3-((4aS,7aS)-3-amino-2,2-dimethyl-1,1-dioxido-7,7a-dihydro-2H-furo[3,4-b][1,4]thiazin-4a(5H)-yl)-4-fluorophenyl)-5-(difluoromethoxy)-3-methyl-2-pyridinecarboxamide [Example 413]
IC50 ([1]; average IC50): 2.65 nM | IC50 ([2]; average IC50): 10.3 nM | IC50 (Cathepsin D (Cat D)): 111000 nM

Molecule: N-(3-((4aR,7aS)-3-amino-2,2-dimethyl-1,1-dioxido-7,7a-dihydro-2H-furo[3,4-b][1,4]thiazin-4a(5H)-yl)-4-fluorophenyl)-3-chloro-1,7-naphthyridin-8-amine,N-(3-((4aS,7aR)-3-amino-2,2-dimethyl-1,1-dioxido-7,7a-dihydro-2H-furo[3,4-b][1,4]thiazin-4a(5H)-yl)-4-fluorophenyl)-3-chloro-1,7-naphthyridin-8-amine [Example 429]
IC50 ([1]; average IC50, enzyme assay): 4.6 nM | IC50 ([2]; average IC50, cell assay): 157 nM | IC50 (Cathepsin D (Cat D)): 131000 nM

Molecule: N-(3-((4aR,7aS)-3-amino-2,2-dimethyl-1,1-dioxido-7,7a-dihydro-2H-furo[3,4-b][1,4]thiazin-4a(5H)-yl)-4-fluorophenyl)-5-chloro-2-pyridinecarboxamide,N-(3-((4aS,7aR)-3-amino-2,2-dimethyl-1,1-dioxido-7,7a-dihydro-2H-furo[3,4-b][1,4]thiazin-4a(5H)-yl)-4-fluorophenyl)-5-chloro-2-pyridinecarboxamide [Example 426]
IC50 ([1]; average IC50, enzyme assay): 1.5 nM | IC50 ([2]; average IC50, cell assay): 13.6 nM | IC50 (Cathepsin D (Cat D)): 170000 nM

Further lines, with some results ahead:

IC50 ([2]; average IC50): 2530 nM
Molecule: CC1(C)C(N)=N[C@](C)(c2cc(Nc3ccc4c(c3)OC(F)(F)O4)cnc2F)CS1(=O)=O [Example 414, (5R)-5-(5-((2,2-difluoro-1,3-benzodioxo1-5-yl)amino)-2-fluoro-3-pyridinyl)-2,2,5-trimethyl-5,6-dihydro-2H-1,4-thiazin-3-amine 1,1-dioxide]

IC50 ([1]; average IC50, enzyme assay): 4.1 nM | IC50 ([2]; average IC50, cell assay): 11.7 nM
Molecule: COc1cnc(C(=O)Nc2ccc(F)c([C@]34COC[C@H]3S(=O)(=O)C(C)(C)C(N)=N4)c2)c(C)c1 [Example 430, N-(3-((4aS,7aS)-3-amino-2,2-dimethyl-1,1-dioxido-7,7a-dihydro-2H-furo[3,4-13][1,4]thiazin-4a(5H)-yl)-4-fluorophenyl)-5-methoxy-3-methyl-2-pyridinecarboxamide]
% reduction of rat CSF levels at 10 pmk (Abeta 40; rat CSF): 31% | % reduction of rat brain levels at 10 mpk (Abeta 40; rat brain): 1%

IC50 ([2]; average IC50, cell assay): 28.5 nM
Molecule: CC1(C)C(N)=N[C@](CF)(c2cc(Nc3nccc4cc(Cl)cnc34)ccc2F)CS1(=O)=O [Example 448, N-(3-((3S)-5-amino-3-(fluoromethyl)-6,6-dimethyl-1,1-dioxido-3,6-dihydro-2H-1,4-thiazn-3-yl)-4-fluorophenyl)-3-chloro-1,7-naphthyridin-8-amine]

IC50 ([1]; average IC50, enzyme assay): 4 nM | IC50 [2, 5]: 34.9 nM | IC50 (Cathepsin D (Cat D); Cathepsin D FRET assay): 466000 nM
Molecule: CO[C@H]1C[C@]2(C1)C(N)=N[C@](C)(c1cc(NC(=O)c3ncc(Cl)cc3C)ccc1F)CS2(=O)=O [Example 460, N-(3-((2R,4r,7R)-9-amino-2-methoxy-7-methyl-5,5-dioxido-5-thia-8-azaspiro[3.5]non-8-en-7-yl)-4-fluorophenyl)-5-chloro-3-methylpicolinamide]

IC50 ([1]; average IC50, enzyme assay): 15.7 nM | IC50 [2, 5]: 28 nM | IC50 (Cathepsin D (Cat D); Cathepsin D FRET assay): 399000 nM
Molecule: COc1cnc(C(=O)Nc2ccc(F)c([C@]3(C)CS(=O)(=O)[C@]4(C[C@H](OC)C4)C(N)=N3)c2)c(C)c1 [Example 461, N-(3-((2R,4r,7R)-9-amino-2-methoxy-7-methyl-5,5-dioxido-5-thia-8-azaspiro[3.5]non-8-en-7-yl)-4-fluorophenyl)-5-methoxy-3-methylpicolinamide]

IC50 ([1]; average IC50, enzyme assay): 3.2 nM | IC50 [2, 5]: 10.4 nM | IC50 (Cathepsin D (Cat D); Cathepsin D FRET assay): 60100 nM
Molecule: Cc1c(C(=O)Nc2ccc(F)c([C@@]3(C)N=C(N)C4(CC4)S(=O)(=O)[C@H]3F)c2)nc2ccc(Cl)cn12 [Example 462, N-(3-((5R,6R)-8-amino-5-fluoro-6-methyl-4,4-dioxido-4-thia-7-azaspiro[2.5]oct-7-en-6-yl)-4-fluorophenyl)-6-chloro-3-methylimidazo[1,2-a]pyridine-2-carboxamide]

IC50 ([1]; average IC50, enzyme assay): 4.6 nM | IC50 [2, 5]: 13.2 nM | IC50 (Cathepsin D (Cat D); Cathepsin D FRET assay): 76500 nM
Molecule: COc1cnc(C(=O)Nc2ccc(F)c([C@]3(C)CS(=O)(=O)[C@]4(C[C@@H](F)C4)C(N)=N3)c2)c(C)c1 [Example 463, N-(3-((2S,4s,7R)-9-amino-2-fluoro-7-methyl-5,5-dioxido-5-thia-8-azaspiro[3.5]non-8-en-7-yl)-4-fluorophenyl)-5-methoxy-3-methylpicolinamide]

IC50 ([1]; average IC50, enzyme assay): 4 nM | IC50 [2, 5]: 6 nM | IC50 (Cathepsin D (Cat D); Cathepsin D FRET assay): 67400 nM
Molecule: Cc1c(C(=O)Nc2ccc(F)c([C@]3(C)CS(=O)(=O)[C@]4(C[C@@H](F)C4)C(N)=N3)c2)nc2ccc(Cl)cn12 [Example 464, N-(3-((2 S,4s,7R)-9-amino-2-fluoro-7-methyl-5,5-dioxido-5-thia-8-azaspiro[3.5]non-8-en-7-yl)-4-fluorophenyl)-6-chloro-3-methylimidazo[1,2-a]pyridine-2-carboxamide]
